Measurements reported in paper PMC12615753, “Glutathione as a taste modulator: molecular mechanisms of interaction with umami and sweet taste receptors” (Food Chemistry: Molecular Sciences, 2025).

Target: T1, hTAS1R1 Q278Y/rTAS1R3 (Homo sapiens, UniProt Q7RTX1, Q278Y)
T1 construct: expressed in transfected cells; host or cells: HEK293T/17 (ATCC CRL-11268)
T1 sequence (Q7RTX1 21-841 Q278Y): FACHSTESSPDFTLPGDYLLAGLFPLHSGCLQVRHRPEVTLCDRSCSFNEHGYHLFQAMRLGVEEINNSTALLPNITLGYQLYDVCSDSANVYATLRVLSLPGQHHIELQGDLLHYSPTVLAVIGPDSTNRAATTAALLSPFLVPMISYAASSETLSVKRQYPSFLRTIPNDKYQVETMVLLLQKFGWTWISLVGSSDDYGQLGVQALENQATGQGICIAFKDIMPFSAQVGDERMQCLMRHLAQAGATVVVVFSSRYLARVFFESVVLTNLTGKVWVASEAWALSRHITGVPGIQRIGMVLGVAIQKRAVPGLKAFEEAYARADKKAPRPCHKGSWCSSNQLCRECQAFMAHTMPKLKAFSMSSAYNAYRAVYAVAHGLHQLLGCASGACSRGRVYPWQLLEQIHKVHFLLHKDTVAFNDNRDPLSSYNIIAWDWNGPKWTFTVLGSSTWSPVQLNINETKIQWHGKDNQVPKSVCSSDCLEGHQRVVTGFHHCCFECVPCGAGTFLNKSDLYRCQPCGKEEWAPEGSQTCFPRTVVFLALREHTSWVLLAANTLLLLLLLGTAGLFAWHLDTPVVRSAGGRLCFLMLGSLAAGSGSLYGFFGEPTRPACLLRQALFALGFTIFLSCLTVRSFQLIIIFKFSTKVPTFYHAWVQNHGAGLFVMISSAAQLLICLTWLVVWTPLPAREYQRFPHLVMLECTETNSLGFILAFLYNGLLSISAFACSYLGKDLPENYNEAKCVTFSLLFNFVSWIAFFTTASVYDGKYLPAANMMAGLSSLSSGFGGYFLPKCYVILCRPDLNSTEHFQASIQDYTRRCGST
T1 sequence (Q923K1 21-858 partner): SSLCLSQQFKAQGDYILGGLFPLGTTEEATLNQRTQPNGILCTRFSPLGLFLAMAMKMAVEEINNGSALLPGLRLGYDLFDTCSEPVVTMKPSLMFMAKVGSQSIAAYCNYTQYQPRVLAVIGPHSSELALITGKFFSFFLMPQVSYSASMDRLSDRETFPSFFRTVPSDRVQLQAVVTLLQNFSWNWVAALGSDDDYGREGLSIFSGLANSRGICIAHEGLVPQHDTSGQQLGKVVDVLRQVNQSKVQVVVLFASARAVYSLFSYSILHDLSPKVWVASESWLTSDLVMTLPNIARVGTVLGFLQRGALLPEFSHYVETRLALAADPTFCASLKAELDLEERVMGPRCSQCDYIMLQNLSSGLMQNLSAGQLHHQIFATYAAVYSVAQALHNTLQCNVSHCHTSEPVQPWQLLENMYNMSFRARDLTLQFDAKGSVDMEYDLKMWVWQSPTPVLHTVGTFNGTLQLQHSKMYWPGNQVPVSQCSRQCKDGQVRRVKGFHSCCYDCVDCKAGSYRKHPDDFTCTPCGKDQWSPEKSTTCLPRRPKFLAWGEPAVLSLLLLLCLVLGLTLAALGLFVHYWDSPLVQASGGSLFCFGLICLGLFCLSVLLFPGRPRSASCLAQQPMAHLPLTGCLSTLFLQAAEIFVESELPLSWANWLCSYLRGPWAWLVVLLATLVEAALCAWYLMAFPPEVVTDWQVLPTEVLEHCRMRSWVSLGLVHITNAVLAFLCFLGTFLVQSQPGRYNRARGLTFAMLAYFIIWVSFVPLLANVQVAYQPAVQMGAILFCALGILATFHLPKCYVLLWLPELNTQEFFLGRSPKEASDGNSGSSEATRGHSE
Assay: Calcium assay, hTAS1R1 mutant co-expressed with rTAS1R3
Type: cell-based, rat
Excerpt: Chimeric Gα proteins, such as Gα16Gust44, Gα16Gi3 or Gα15i2, are widely used in the functional expression of TAS1R receptors ([Backes et al., 2015]; [Suess et al., 2015]; [Toda et al., 2021], [Toda et al., 2013], [Toda et al., 2018]; [Zhang et al., 2008]). Chimeric Gα15i2 (([Toda et al., 2013]), Supplementary data) was generated by replacing the last five residues of the C-terminal tail of rat Gα15i2 (EINLL) (UniProt number G3V6N8; https://www.uniprot.org/uniprot/) with the counterpart sequence from human GNAI2 (DCGLF) (UniProt number P04899-1) and cloning into the pcDNA3.1/Hygro vector (Invitrogen, Thermo Fisher Scientific, Illkirch, France) between the HindIII and NotI restriction sites, resulting in the plasmid pcDNA3.1-Gα15i2. Chimeric Gα16Gust44 construct have already been reported ([Raliou et al., 2011]). Briefly, Gα16Gust44 was generated by replacing the C-terminal of Gα16 with the C-terminal 44 residues of gustducin. As previously described, hTAS1R1 was amplified from human fungiform papillae cDNA and cloned and inserted into pcDNA3 (Invitrogen), generating pcDNA3-TAS1R1-WT (wild-type) ([Raliou et al., 2011]). […] The cDNA coding region of rTAS1R3 was synthesized with optimized-codon usage for human expression (Genewiz) and was cloned and inserted into the mammalian pcDNA4/myc-HisA (Invitrogen) expression vector between the EcoRI and NotI restriction sites, resulting in the plasmid pcDNA4-rTAS1R3. […] The sequence integrity of all the plasmid constructs was verified via automated DNA sequencing (Genewiz).
The hTAS1R1 mutants were co-expressed with the rTAS1R3 subunit in HEK293 cells. […] As a control, the functionality of the mutated receptors was checked after stimulation with S807 (Fig. S8), which interacts with TAS1R1-TMD ([Zhang et al., 2008]).

response to the agonist alone, vs WT (Q278Y)	SMILES	EC50 [mM]	effect of the added compound (1 mM) on the response to L-Glu (Q278Y)	Max ∆F/F0 (Q278Y, GSH)	R1 = mutant EC50/WT EC50 (Q278Y, GSH)
	N[C@@H](CCC(=O)N[C@@H](CS)C(=O)NCC(=O)O)C(=O)O [GSH, γ-L-glutamyl-L-cysteinyl-glycine]	3.96 ± 1.76	synergy was observed	0.47 ± 0.07	1.6
strongly affected	CCCC(CCC)NC(=O)c1ccc2c(c1)OCO2 [S807, N-(heptan-4-yl)benzo[d][1,3]dioxole-5-carboxamide, reference compound]				
